Measured values: US20250034139A1, “AMINE COMPOUNDS HAVING ANTI-INFLAMMATORY, ANTIFUNGAL, ANTIPARASITIC, AND ANTICANCER ACTIVITY” (PHARMA CINQ, LLC, priority 2013, published 2025)

Tests used:
[1] = test system: PC3 human prostate cancer cells; experiment: Example S: in vitro anticancer screen, PC-3 cells, Wst1; assay type: cell-based; conditions: Homo sapiens, PC-3, approximately 20 hours, Wst1, read-out: PC-3, percent of cancer cell survival relative to vehicle treated cells
Procedure: Activity against PC3 human prostate cancer cells in vitro was assessed by a similar method. PC-3 prostate cancer cells were plated at 2×10^4 cells/well in 96 well flat bottom tissue culture plates, and incubated for approximately 20 hours with vehicle or test compounds at concentrations of 0.4, 0.5 or 2.5 μM as indicated for specific compounds in the right-hand column of Table 37. A 1/10th volume of Wst1 dye was added/well and incubated for two hours in the cell culture incubator. Samples were analyzed in triplicate on an EL800 Universal Microplate Reader at 450 nm, reference wavelength 630 nm.
(§1) Numerical values in the Table 37 represent percent of cancer cell survival relative to vehicle treated cells at the indicated concentrations, with values under 100 indicating anticancer cytotoxic activity at the drugs concentrations tested.

THP-1 cells = experiment: Example D: LPS-triggered THP-1 cell death assay, acute/5-hour and chronic/48-hour; assay type: cell-based, Human; conditions: 10 ng/ml LPS, 0.1 μM test compound, 48 hours
Procedure: Compounds of the invention were tested at 0.1 μM versus AC in the LPS-triggered THP-1 cell death assay. Both acute/5-hour and chronic/48-hour phases of cell death were assessed. Compounds were screened in batches with DMSO as the negative control and AC as the high activity control.

[2] = test system: PC-3 prostate cancer cells; experiment: Example T: sensitisation of PC-3 cells to doxorubicin, oxaliplatin, paclitaxel or vincristine, Wst1; assay type: cell-based, human; conditions: PC-3 cells, 72 hours; for viability at 2.5 µM / viability at 5 µM: Homo sapiens, Wst1, vehicle = 100, read-out: No Chemo: percent cell survival; for viability at 2.5 µM: compound 2.5 μM alone; for Doxorubicin 3.5 μM: percent cell survival / Oxaliplatin 100 μM: percent cell survival / Paclitaxel 50 μM: percent cell survival / Vincristine 100 nM: percent cell survival: chemotherapy agent alone normalized to 100%; for viability at 5 µM: compound 5 μM alone
[3] = test system: 4T1 murine breast cancer cells; experiment: Example S: in vitro anticancer screen, 4T1 cells, Wst1; assay type: cell-based, mouse; conditions: Mus musculus, 4T1, 18 h, 18 hr, Wst1; for viability at 1 µM: read-out: 4T1 1 μM, percent of cancer cell survival relative to vehicle treated cells; for viability at 5 µM: read-out: 4T1 5 μM, percent of cancer cell survival relative to vehicle treated cells
Procedure: Anticancer activity against 4T1 murine breast cancer cells cancer cells was assessed in vitro by seeding 1×10^4 cells/well in flat bottom culture plates, then treating with selected 1 μM or 5 μM concentrations of compounds for 18 hr after plating. Then 10 μL of Wst1 dye reagent, a tetrazolium dye indicator for […], was added/well and incubated approximately 2 hr before being assayed on the Biotek EL800 Universal microplate reader (450 nm, reference 630 nm).
as §1

[4] = compound 2.5 μM + doxorubicin 3.5 μM
[5] = compound 2.5 μM + oxaliplatin 100 μM
[6] = compound 2.5 μM + paclitaxel 50 μM
[7] = compound 2.5 μM + vincristine 100 nM
[8] = compound 5 μM + doxorubicin 3.5 μM
[9] = compound 5 μM + oxaliplatin 100 μM
[10] = compound 5 μM + paclitaxel 50 μM
[11] = compound 5 μM + vincristine 100 nM

| SMILES | viability at 2.5 µM [1] | Viable cell percent change, Chronic/48-hour, Mean (THP-1 cells) | viability at 2.5 µM [2] | Doxorubicin 3.5 μM: percent cell survival [2, 4] | Oxaliplatin 100 μM: percent cell survival [2, 5] | Paclitaxel 50 μM: percent cell survival [2, 6] | Vincristine 100 nM: percent cell survival [2, 7] | viability at 5 µM [1] | viability at 5 µM [2] | Doxorubicin 3.5 μM: percent cell survival [2, 8] | Oxaliplatin 100 μM: percent cell survival [2, 9] | Paclitaxel 50 μM: percent cell survival [2, 10] | Vincristine 100 nM: percent cell survival [2, 11] | viability at 1 µM [3] | viability at 5 µM [3] |
| --- | --- | --- | --- | --- | --- | --- | --- | --- | --- | --- | --- | --- | --- | --- | --- |
| CCOCCCCCCCCn1cnc2cnc3ccccc3c21 [CD, 1-(8-Ethoxyoctyl)-1H-imidazo[4,5-c]quinoline] | 16.6% | 7.55% | 16.6% | 19.5% | 20.1% | 23.2% | 17.1% |  |  |  |  |  |  |  |  |
| COCCCCCCCCn1cnc2cnc3ccccc3c21 [CE, 1-(8-Methoxyoctyl)-1H-imidazo[4,5-c]quinoline] | 16.2% | 4.71% | 16.2% | 44.3% | 18.8% | 23.5% | 15.6% |  |  |  |  |  |  |  |  |
| COCCCCCNc1ccnc2ccccc12 [CM, N-(5-Methoxypentyl)quinolin-4-amine] |  |  |  |  |  |  |  | 37.8% | 37.8% | 72.6% | 78.1% | 74.8% | 81.3% | 104% | 221% |
| CCOc1ccccc1OCCCNc1ccnc2ccccc12 [CS, N-[3-(2-Ethoxyphenoxy)propyl]quinolin-4-amine] | 41.3% | 66.27% | 41.3% | 79% | 84.2% | 69.7% | 82.8% |  |  |  |  |  |  |  |  |
| COc1ccccc1OCCCNc1ccnc2ccccc12 [CT, N-[3-(2-Methoxyphenoxy)propyl]quinolin-4-amine] | 34.5% | 34.36% | 34.5% | 63.2% | 71.9% | 46.3% | 46.3% |  |  |  |  |  |  |  |  |
| c1ccc(COc2ccccc2OCCCNc2ccnc3ccccc23)cc1 [CU, N-{3-[2-(Benyloxy)phenoxy]propyl}quinolin-4-amine] | 37.6% | 41.84% | 37.6% | 65% | 74.9% | 100.2% | 56.7% |  |  |  |  |  |  |  |  |
| CCCCCCOc1ccccc1C(=O)NCCNc1ccnc2ccccc12 [EB, 2-(Hexyloxy)-N-[2-(quinolin-4-ylamino)ethyl]benzamide] | 94.4% | 35.89% | 94.4% | 93.4% | 98.8% | 143.3% | 98.2% |  |  |  |  |  |  |  |  |
| CCCCCCOc1ccccc1C(=O)NCCCNc1ccnc2ccccc12 [EC, 2-(Hexyloxy)-N-[3-(quinolin-4-ylamino)propyl]benzamide] | 94.6% | 47.40% | 94.6% | 82.8% | 100.4% | 136.8% | 91.6% |  |  |  |  |  |  |  |  |
| CCCCCCOCCCCCCCCNc1cnc2ccccc2c1 [EL, N-[8-(Hexyloxy)octyl]quinolin-3-amine] | 41.8% |  | 41.8% | 73.7% | 99.4% | 86.1% | 70.8% |  |  |  |  |  |  | 108% | 39.4% |
| CCOCc1nc2cnc3ccccc3c2n1CC(C)(C)O [FB, 1-[2-(Ethoxymethyl)-1H-imidazo[4,5-c]quinolin-1-yl]-2-methylpropan-2-ol] | 97.7% |  | 97.7% | 89.1% | 95.5% | 93.2% | 98.6% |  |  |  |  |  |  | 92.7% | 90% |
| CCCCCCCCCCCCCCCc1nc2c(O)nc3ccccc3c2n1CC(C)C [FD, 1-Isobutyl-2-pentadecyl-1H-imidazo[4,5-c]quinolin-4-ol] |  |  |  |  |  |  |  | 112% | 112% | 101% | 85.3% | 95.6% | 98.7% | 106% | 112% |
| CCCCCCCCCCCCCCCCn1cnc2cnc3ccccc3c21 [FE, 1-Hexadecyl-1H-imidazo[4,5-c]quinoline] |  |  |  |  |  |  |  | 34.2% | 34.2% | 46.8% | 67.6% | 113.7% | 37.3% | 108% | 31.7% |
| CCCCCCCCCCCCCCCCn1cnc2c(N)nc3ccccc3c21 [FF, 1-Hexadecyl-1H-imidazo[4,5-c]quinolin-4-amine] |  |  |  |  |  |  |  | 93% | 93% | 90.7% | 95.2% | 136.1% | 110.1% | 103% | 102% |
| CCCCCCCCCCCCOCCn1cnc2c(N(C)C)nc3ccccc3c21 [FH, 1-[2-(Dodecyloxy)ethyl]-N,N-dimethyl-1H-imidazo[4,5-c]quinolin-4-amine] |  |  |  |  |  |  |  | 89% | 89% | 79.6% | 82.3% | 131.8% | 114.9% | 101% | 102% |
| CCCCCCOCCCCCCCCn1cnc(-c2ccccc2)c1 [FR, 1-[8-(Hexyloxy)octyl]-4-phenyl-1H-imidazole] | 101% | 15.96% | 101% | 93.2% | 102.5% | 102.5% | 99.1% |  |  |  |  |  |  |  |  |
| CCCCCCCCCCCCn1cnc2cnc3ccccc3c21 [FY, 1-Dodecyl-1H-imidazo[4,5-c]quinoline] | 36% |  | 36% | 74.6% | 91.5% | 91% | 80.1% |  |  |  |  |  |  | 95.2% | 26.8% |
| CCCCCCCCCCOCCCn1cnc2cnc3ccccc3c21 [FZ, 1-[3-(Decyloxy)propyl]-1H-imidazo[4,5-c]quinoline] |  |  |  |  |  |  |  | 32.7% | 32.7% | 39.6% | 67.7% | 114.8% | 38.5% | 91.4% | 56.6% |
| CCCCCCOc1cccc(OCCCn2cnc3cnc4ccccc4c32)c1 [GD, 1-{3-[3-(Hexyloxy)phenoxy]propyl}-1H-imidazo[4,5-c]quinoline] | 24.3% |  | 24.3% | 39.5% | 26.7% | 27% | 23.5% |  |  |  |  |  |  |  |  |
